According to US20220204575A1, “MODULATING SURVIVAL OF THERAPEUTIC CELLS AND METHODS, CELLS AND NUCLEIC ACIDS RELATED THERETO” (The Regents of the University of California, priority 2019, published 2022):

Experiments:
Assay type in all cases: cell-based
T cells = experiment: Basal T cell death from inducible response element constructs in the absence of synNotch antigen
From the text: Differences in the potency of various BCL-2 family members in inducible systems for therapeutic cell population control were also investigated and differences in potency were observed. For example, molecular circuits were designed and tested that included a response element construct including a UAS, inducible by the released transcription factor (TF) domain of a synNotch receptor, driving expression of various different BCL-2 family members (e.g., BIM, tBID, etc.) and a constitutive reporter (mCherry) (see schematic depiction provided in FIG. 19). Upon binding its target antigen, the synNotch receptor releases the TF domain which activates the UAS thereby driving expression of the respective BCL-2 family protein and the mCherry reporter is used to observe the size of the cell population thereafter.

primary human T cells = experiment: Constitutive overexpression of pro-apoptotic BCL-2 family proteins in T cells, FACS at culture day 12
Experimental: The abilities of several pro-apoptotic proteins (e.g., BIM, truncated Bid (tBID), and BAD) to induce T cell apoptosis when synthetically overexpressed from a constitutive promoter were tested. The tested T cells were also engineered to constitutively overexpress anti-apoptotic BCL-2.
Without being bound by theory, these effects were likely due to leaky expression of BIM, the high effectiveness of BIM in inducing apoptosis, or a combination thereof.

[1] = tested on: human primary CD4 T cells; experiment: Anti-Her2 synNotch driving pro-apoptotic BCL-2 family protein X, T cell survival with antigen-expressing target cells; settings: in the presence of antigen-expressing target cells
Experimental: For example, a circuit was designed, as schematically depicted in FIG. 27, with an anti-Her2 synNotch driving expression of a pro-apoptotic BCL-2 family protein “X”, where X stands for the various pro-apoptotic BCL-2 family members were tested in the depicted circuit. As shown, upon the anti-Her2 scFv portion of the synNotch receptor binding Her2 expressed by a target cell, the transcription factor (TF) portion of the synNotch, containing Gal4-VP64, is released and inducing expression of the pro-apoptotic BCL-2 family protein “X”. The level of induced apoptosis in the presence of cells expressing the target antigen, as compared to control cells not expressing the target antigen, was then assessed.
Results of testing BID, tBID, PUMA, BMF, HRK and BIK as pro-apoptotic BCL-2 family protein “X” in this system are shown in FIG. 28, along with a negative control employing BFP in place of the pro-apoptotic BCL-2 family protein “X”.
Thus, the therapeutic cells encoding the BID circuit were able to survive BID induction.

engineered T cells = experiment: Inducible tBID circuit with varied levels of constitutive BCL-2 expression, T cell survival; settings: constant antigen-induced tBID expression, varied constitutive BCL-2
From the text: The ability of anti-apoptotic BCL-2 to buffer a pro-apoptotic protein was further tested in an inducible tBID circuit (described in more detail below) with varied levels of constitutive BCL-2 expression (schematically depicted in FIG. 5). In this experiment, constant levels of tBID expression were induced by the presence of antigen expressing target cells, BCL-2 expression levels were varied, and the amount of T cell survival at different levels of BCL-2 expression was quantitated (FIG. 6).

Substance: BIM: pro-apoptotic BCL-2 family protein, human BIM UniProt O43521, SEQ ID NO: 99
- basal T cell death from leaky expression (T cells; absence of synNotch target antigen, mCherry reporter): sufficient to cause widespread T cell death
- cell death from uninduced inducible construct (T cells; uninduced, in the absence of co-expression with anti-apoptotic BCL-2): leads to significant levels of cell death
- ability to induce T cell apoptosis / drive T cell death (primary human T cells; constitutive expression, with constitutive overexpression of BCL-2, culture day 12): drove significant apoptosis

Substance: HRK: pro-apoptotic HRK protein, human UniProt O00198, SEQ ID NO: 103
- induced apoptosis of T cells [1]: induce apoptosis of human primary CD4 T cells

Substance: BCL-2: anti-apoptotic BCL-2 protein, human UniProt P10415, SEQ ID NO: 105
- buffering against apoptotic effects of tBID and BIM (primary human T cells; constitutive co-expression of BCL-2): at least partially buffer against the apoptotic effects
- T cell survival at different levels of BCL-2 expression (engineered T cells): titratably buffers against apoptosis
- T cell survival at different levels of BCL-2 expression (engineered T cells; listed as BCL2): less tBID-induced apoptosis

Substance: BMF: pro-apoptotic BMF protein, human UniProt Q96LC9
- induced apoptosis of T cells [1]: induce apoptosis of human primary CD4 T cells
